Measurements published in the NIST ThermoML archive (doi:10.1021/je050112b).
Values joined by “and” are separate entries in the source; they are usually repeats but may differ in a detail not shown here. Identical values can stand only once.

[I][Sm]([I])[I] [samarium triiodide]
Crystal
Conditions | vapor or sublimation pressure
789 K | 0.00017 kPa
797 K | 0.00024 kPa
799 K | 0.0002 kPa
801 K | 0.0002 kPa
805 K | 0.00034 kPa
807 K | 0.00029 kPa
808 K | 0.00025 kPa
814 K | 0.00051 kPa
815 K | 0.00034 kPa
819 K | 0.00051 kPa
823 K | 0.00071 kPa and 0.00047 kPa
824 K | 0.00064 kPa
832 K | 0.00067 kPa
833 K | 0.00088 kPa and 0.00101 kPa
840 K | 0.00111 kPa and 0.00098 kPa
843 K | 0.00145 kPa
849 K | 0.00148 kPa and 0.00135 kPa
852 K | 0.00212 kPa
856 K | 0.00189 kPa
857 K | 0.00168 kPa
863 K | 0.00236 kPa
867 K | 0.00236 kPa
868 K | 0.00276 kPa
876 K | 0.00307 kPa

[I][Sm][I] [samarium diiodide]
Liquid
Conditions | vapor or sublimation pressure
1048 K | 0.00013 kPa
1051 K | 0.00016 kPa
1064 K | 0.00021 kPa
1065 K | 0.00019 kPa
1068 K | 0.00024 kPa
1069 K | 0.00024 kPa
1072 K | 0.00021 kPa
1074 K | 0.00027 kPa
1076 K | 0.00027 kPa and 0.00024 kPa
1078 K | 0.00029 kPa
1080 K | 0.0004 kPa
1082 K | 0.00032 kPa
1085 K | 0.00035 kPa
1086 K | 0.00035 kPa
1088 K | 0.00048 kPa
1089 K | 0.00035 kPa
1092 K | 0.00043 kPa and 0.00035 kPa
1093 K | 0.00043 kPa
1094 K | 0.00043 kPa
1096 K | 0.00048 kPa
1098 K | 0.00045 kPa
1100 K | 0.00045 kPa
1101 K | 0.00053 kPa
1102 K | 0.00075 kPa
1103 K | 0.00056 kPa
1104 K | 0.00059 kPa
1106 K | 0.00056 kPa
1108 K | 0.00064 kPa and 0.00051 kPa
1110 K | 0.00061 kPa
1111 K | 0.00064 kPa
1113 K | 0.00064 kPa
1114 K | 0.00077 kPa
1118 K | 0.00069 kPa and 0.00075 kPa and 0.00064 kPa
1120 K | 0.0008 kPa
1121 K | 0.00117 kPa
1124 K | 0.00093 kPa and 0.00096 kPa and 0.00085 kPa
1125 K | 0.00085 kPa
1126 K | 0.00091 kPa
1128 K | 0.00139 kPa and 0.00085 kPa
1129 K | 0.00107 kPa and 0.00096 kPa
1133 K | 0.00123 kPa and 0.00104 kPa
1134 K | 0.00107 kPa
1135 K | 0.00115 kPa
1136 K | 0.00134 kPa
1138 K | 0.00112 kPa
1139 K | 0.00123 kPa
1140 K | 0.00176 kPa
1141 K | 0.00128 kPa
1142 K | 0.00155 kPa and 0.00128 kPa
1144 K | 0.00144 kPa
1145 K | 0.0016 kPa and 0.00166 kPa
1148 K | 0.00144 kPa
1150 K | 0.0016 kPa
1151 K | 0.0016 kPa
1152 K | 0.00198 kPa
1153 K | 0.00182 kPa
1154 K | 0.00203 kPa
1155 K | 0.00214 kPa
1158 K | 0.00198 kPa and 0.00192 kPa and 0.00187 kPa
1159 K | 0.00262 kPa and 0.00203 kPa
1160 K | 0.0023 kPa
1161 K | 0.0024 kPa and 0.00219 kPa
1162 K | 0.00208 kPa and 0.00203 kPa
1164 K | 0.00262 kPa
1167 K | 0.00246 kPa
1168 K | 0.0024 kPa
1169 K | 0.00278 kPa and 0.00288 kPa
1170 K | 0.00272 kPa
1171 K | 0.00347 kPa and 0.00251 kPa and 0.00246 kPa
1173 K | 0.0031 kPa
1177 K | 0.00331 kPa [middle of 4 runs]
1178 K | 0.00326 kPa
1179 K | 0.00288 kPa and 0.00358 kPa and 0.00294 kPa
1181 K | 0.00368 kPa
1183 K | 0.00449 kPa
1185 K | 0.00363 kPa
1186 K | 0.00368 kPa [middle of 5 runs]
1187 K | 0.00401 kPa
1188 K | 0.00427 kPa
1189 K | 0.00336 kPa and 0.00331 kPa
1195 K | 0.00443 kPa
1196 K | 0.00507 kPa
